Measured values taken from article PMC7933434, “Entropy-driven binding of gut bacterial β-glucuronidase inhibitors ameliorates irinotecan-induced toxicity” (Communications Biology, 2021).
Several values for one entry are separate records, joined by “and”; a condition that tells them apart may be missing. Identical values can stand only once. Like-named read-outs stand apart in the source and are kept apart here.

What was measured:
[1] = target: BdGUS (Bifidobacterium dentium GUS) (Bifidobacterium dentium, UniProt D2Q7B1); assay: biochemical; parameters: GUS activity (hydrolysis rate of MUG) / 1/v: unit not given here
Sequence of BdGUS (Bifidobacterium dentium GUS) (D2Q7B1 1-668): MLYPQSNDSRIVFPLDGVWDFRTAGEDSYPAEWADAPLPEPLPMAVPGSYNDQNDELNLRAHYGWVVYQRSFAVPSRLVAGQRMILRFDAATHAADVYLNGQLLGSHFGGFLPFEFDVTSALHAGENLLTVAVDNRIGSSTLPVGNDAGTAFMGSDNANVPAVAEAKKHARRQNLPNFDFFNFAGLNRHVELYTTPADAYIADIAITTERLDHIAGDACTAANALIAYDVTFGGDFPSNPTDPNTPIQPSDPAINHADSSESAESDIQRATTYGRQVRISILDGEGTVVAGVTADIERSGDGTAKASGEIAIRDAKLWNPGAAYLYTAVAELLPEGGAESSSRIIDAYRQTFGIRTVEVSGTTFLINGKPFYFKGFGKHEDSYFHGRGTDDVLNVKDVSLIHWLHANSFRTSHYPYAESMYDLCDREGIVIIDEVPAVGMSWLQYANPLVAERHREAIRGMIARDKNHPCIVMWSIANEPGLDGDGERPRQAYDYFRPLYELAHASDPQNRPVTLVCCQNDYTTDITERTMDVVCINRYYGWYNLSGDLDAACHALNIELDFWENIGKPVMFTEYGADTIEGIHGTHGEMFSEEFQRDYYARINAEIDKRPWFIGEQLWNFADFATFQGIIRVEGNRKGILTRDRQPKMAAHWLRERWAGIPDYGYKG

[2] = target: T1, HsGUS (human GUS) (Homo sapiens, UniProt P08236); assay: GUS inhibition assay, hydrolysis of 4-methylumbelliferyl-β-glucuronide, HsGUS; assay type: biochemical; parameters: GUS activity (hydrolysis rate of MUG): unit not given here
T1 construct: HsGUS was prepared as described[37]; made in house
T1 sequence (P08236 23-651): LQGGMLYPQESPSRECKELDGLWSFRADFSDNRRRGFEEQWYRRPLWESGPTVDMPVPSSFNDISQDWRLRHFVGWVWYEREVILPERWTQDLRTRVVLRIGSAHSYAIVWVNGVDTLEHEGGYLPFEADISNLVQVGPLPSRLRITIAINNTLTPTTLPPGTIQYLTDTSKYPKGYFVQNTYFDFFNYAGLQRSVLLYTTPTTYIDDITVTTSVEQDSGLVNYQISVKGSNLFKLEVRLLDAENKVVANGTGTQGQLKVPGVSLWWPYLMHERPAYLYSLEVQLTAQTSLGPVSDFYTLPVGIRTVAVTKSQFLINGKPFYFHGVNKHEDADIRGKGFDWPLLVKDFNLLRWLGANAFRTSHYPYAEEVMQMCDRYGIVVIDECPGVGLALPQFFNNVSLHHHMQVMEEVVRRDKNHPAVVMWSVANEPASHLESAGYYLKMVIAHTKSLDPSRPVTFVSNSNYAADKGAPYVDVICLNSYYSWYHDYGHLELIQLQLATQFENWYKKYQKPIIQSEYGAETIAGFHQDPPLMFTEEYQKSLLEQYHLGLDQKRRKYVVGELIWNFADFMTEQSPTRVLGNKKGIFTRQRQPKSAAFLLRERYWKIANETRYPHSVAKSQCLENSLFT

[3] = target: EcGUS (Escherichia coli, UniProt P05804); assay: Isothermal titration calorimetry, EcGUS; assay type: binding; conditions: EcGUS
Sequence of EcGUS (P05804 whole entry): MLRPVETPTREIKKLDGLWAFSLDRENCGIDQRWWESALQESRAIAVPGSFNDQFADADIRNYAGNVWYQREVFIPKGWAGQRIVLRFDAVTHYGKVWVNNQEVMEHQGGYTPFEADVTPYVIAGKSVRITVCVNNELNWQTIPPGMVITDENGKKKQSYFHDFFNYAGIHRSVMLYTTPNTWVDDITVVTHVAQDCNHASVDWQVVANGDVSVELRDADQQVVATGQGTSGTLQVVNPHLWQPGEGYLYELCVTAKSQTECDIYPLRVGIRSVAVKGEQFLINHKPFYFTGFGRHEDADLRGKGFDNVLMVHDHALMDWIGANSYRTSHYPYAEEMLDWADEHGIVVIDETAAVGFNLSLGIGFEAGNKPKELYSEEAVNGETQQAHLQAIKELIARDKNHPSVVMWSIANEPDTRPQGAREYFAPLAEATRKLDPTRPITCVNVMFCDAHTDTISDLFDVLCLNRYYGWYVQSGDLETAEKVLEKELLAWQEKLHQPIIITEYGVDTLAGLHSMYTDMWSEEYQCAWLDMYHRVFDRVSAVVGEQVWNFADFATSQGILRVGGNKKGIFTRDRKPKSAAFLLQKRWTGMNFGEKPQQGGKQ

[4] = target: EcGUS (Escherichia coli GUS) (Escherichia coli, UniProt P05804); assay: biochemical
Sequence of EcGUS (Escherichia coli GUS) (P05804 whole entry): as above

[5] = [Inhibitor 4] = 0.6 μM, [MUG] 0.08 mM
[6] = [Inhibitor 4] = 0.6 μM, [MUG] 0.125 mM
[7] = [Inhibitor 4] = 0.6 μM, [MUG] 0.25 mM
[8] = [Inhibitor 4] = 0.6 μM, [MUG] 0.5 mM
[9] = phosphate buffer (250 mM NaCl, 20 mM KH2PO4, 100 mM Na2HPO4, pH 8.0), 298 K

Structure (SMILES): CCCCCCCCC[C@@H]1NC[C@@H](O)[C@H](O)[C@H]1C(=O)O [Inhibitor 4, C6-nonyl UIFG]
- GUS activity (hydrolysis rate of MUG) ([1]; [Inhibitor 4] = 0.3 μM, [MUG] 0.5 mM): 3.484 and 3.534 and 3.499
- 1/v [1, 5]: 0.286 and 0.2822 and 0.2849
- GUS activity (hydrolysis rate of MUG) [1, 5]: 0.7809 and 0.7911 and 0.7837
- 1/v [1, 6]: 0.2142 and 0.2187 and 0.2123
- GUS activity (hydrolysis rate of MUG) [1, 6]: 1.043 and 1.021 and 1.052
- 1/v [1, 7]: 0.1255 and 0.1264 and 0.1244
- GUS activity (hydrolysis rate of MUG) [1, 7]: 1.779 and 1.767 and 1.7944
- 1/v [1, 8]: 0.08292 and 0.0812 and 0.08265
- GUS activity (hydrolysis rate of MUG) [1, 8]: 2.693 and 2.75 and 2.702
- Ki ([2]; HsGUS, 50 mM sodium acetate pH 4.5, 37 °C): 105 µM
- GUS activity (hydrolysis rate of MUG) ([2]; [Inhibitor 4] =32 μM, [MUG] 0.1 mM): 862.058 and 811.68
- GUS activity (hydrolysis rate of MUG) ([2]; [Inhibitor 4] =32 μM, [MUG] 0.2 mM): 1454.23 and 1423.51
- GUS activity (hydrolysis rate of MUG) ([2]; [Inhibitor 4] =32 μM, [MUG] 0.4 mM): 2392.78 and 2276.09
- GUS activity (hydrolysis rate of MUG) ([2]; [Inhibitor 4] =32 μM, [MUG] 0.6 mM): 3009.56 and 2960.24
- GUS activity (hydrolysis rate of MUG) ([2]; [Inhibitor 4] =32 μM, [MUG] 0.8 mM): 3491.23 and 3336.67
- GUS activity (hydrolysis rate of MUG) ([2]; [Inhibitor 4] =32 μM, [MUG] 1.2 mM): 3870.44 and 4183.78
- GUS activity (hydrolysis rate of MUG) ([2]; [Inhibitor 4] =32 μM, [MUG] 1.6 mM): 4158.21 and 4615.97
- GUS activity (hydrolysis rate of MUG) ([2]; [Inhibitor 4] =32 μM, [MUG] 2 mM): 4779.14 and 4997.44
- GUS activity (hydrolysis rate of MUG) ([2]; [Inhibitor 4] =67 μM, [MUG] 0.1 mM): 714.053 and 717.679
- GUS activity (hydrolysis rate of MUG) ([2]; [Inhibitor 4] =67 μM, [MUG] 0.2 mM): 1251.96 and 1238.2
- GUS activity (hydrolysis rate of MUG) ([2]; [Inhibitor 4] =67 μM, [MUG] 0.4 mM): 2074.49 and 2003.18
- GUS activity (hydrolysis rate of MUG) ([2]; [Inhibitor 4] =67 μM, [MUG] 0.6 mM): 2680.12 and 2744.95
- GUS activity (hydrolysis rate of MUG) ([2]; [Inhibitor 4] =67 μM, [MUG] 0.8 mM): 3069.97 and 3096.82
- GUS activity (hydrolysis rate of MUG) ([2]; [Inhibitor 4] =67 μM, [MUG] 1.2 mM): 3696.42 and 3579.45
- GUS activity (hydrolysis rate of MUG) ([2]; [Inhibitor 4] =67 μM, [MUG] 1.6 mM): 4205.98 and 4285.65
- GUS activity (hydrolysis rate of MUG) ([2]; [Inhibitor 4] =67 μM, [MUG] 2 mM): 4703.3 and 4573.62
- GUS activity (hydrolysis rate of MUG) ([2]; [Inhibitor 4] =132 μM, [MUG] 0.1 mM): 517.307 and 519.469
- GUS activity (hydrolysis rate of MUG) ([2]; [Inhibitor 4] =132 μM, [MUG] 0.2 mM): 900.965 and 901.806
- GUS activity (hydrolysis rate of MUG) ([2]; [Inhibitor 4] =132 μM, [MUG] 0.4 mM): 1492.38 and 1537.56
- GUS activity (hydrolysis rate of MUG) ([2]; [Inhibitor 4] =132 μM, [MUG] 0.6 mM): 1976.12 and 2037.84
- GUS activity (hydrolysis rate of MUG) ([2]; [Inhibitor 4] =132 μM, [MUG] 0.8 mM): 2410.12 and 2475.98
- GUS activity (hydrolysis rate of MUG) ([2]; [Inhibitor 4] =132 μM, [MUG] 1.2 mM): 2927.86 and 2924.04
- GUS activity (hydrolysis rate of MUG) ([2]; [Inhibitor 4] =132 μM, [MUG] 1.6 mM): 3406.61 and 3409.83
- GUS activity (hydrolysis rate of MUG) ([2]; [Inhibitor 4] =132 μM, [MUG] 2 mM): 3959.47 and 3855.66
- GUS activity (hydrolysis rate of MUG) ([2]; [Inhibitor 4] =180 μM, [MUG] 0.1 mM): 375.667 and 389.113
- GUS activity (hydrolysis rate of MUG) ([2]; [Inhibitor 4] =180 μM, [MUG] 0.2 mM): 647.66 and 642.675
- GUS activity (hydrolysis rate of MUG) ([2]; [Inhibitor 4] =180 μM, [MUG] 0.4 mM): 1075.66 and 1190.92
- GUS activity (hydrolysis rate of MUG) ([2]; [Inhibitor 4] =180 μM, [MUG] 0.6 mM): 1564.63 and 1648.7
- GUS activity (hydrolysis rate of MUG) ([2]; [Inhibitor 4] =180 μM, [MUG] 0.8 mM): 1885.35 and 1934.39
- GUS activity (hydrolysis rate of MUG) ([2]; [Inhibitor 4] =180 μM, [MUG] 1.2 mM): 2412.5 and 2422.72
- GUS activity (hydrolysis rate of MUG) ([2]; [Inhibitor 4] =180 μM, [MUG] 1.6 mM): 2821.07 and 2863.56
- GUS activity (hydrolysis rate of MUG) ([2]; [Inhibitor 4] =180 μM, [MUG] 2 mM): 3316.38 and 3309.46
- GUS activity (hydrolysis rate of MUG) ([2]; [Inhibitor 4] =262 μM, [MUG] 0.1 mM): 312.332 and 326.592
- GUS activity (hydrolysis rate of MUG) ([2]; [Inhibitor 4] =262 μM, [MUG] 0.2 mM): 574.208 and 582.829
- GUS activity (hydrolysis rate of MUG) ([2]; [Inhibitor 4] =262 μM, [MUG] 0.4 mM): 1016.99 and 1025.39
- GUS activity (hydrolysis rate of MUG) ([2]; [Inhibitor 4] =262 μM, [MUG] 0.6 mM): 1397.45 and 1434.43
- GUS activity (hydrolysis rate of MUG) ([2]; [Inhibitor 4] =262 μM, [MUG] 0.8 mM): 1699 and 1721.63
- GUS activity (hydrolysis rate of MUG) ([2]; [Inhibitor 4] =262 μM, [MUG] 1.2 mM): 2236.3 and 2225.05
- GUS activity (hydrolysis rate of MUG) ([2]; [Inhibitor 4] =262 μM, [MUG] 1.6 mM): 2654.14 and 2619.41
- GUS activity (hydrolysis rate of MUG) ([2]; [Inhibitor 4] =262 μM, [MUG] 2 mM): 3001.13 and 3042.83
- ΔH ([3]; Tris buffer (250 mM NaCl, 20 mM Tris, pH 8.0), 298 K): close to zero
- ΔΔH relative to 2 (ΔΔH2–3, ΔΔH2–4) ([3]; phosphate buffer): +0.99 kcal mol^−1
- –TΔΔS relative to 2 (–TΔΔS2–3, –TΔΔS2–4) ([3]; phosphate buffer): -1.34 kcal/mol
- Kd [3, 9]: 160 ± 40 nM
- ΔG [3, 9]: –9.30 ± 0.13 kcal/mol
- ΔH [3, 9]: –3.00 ± 0.02 kcal/mol
- —TΔS [3, 9]: –6.31 ± 0.15 kcal/mol
- Ki [4]: 4.5 nM
- Ki ([4]; 50 mM HEPES pH 7.5, 37 °C): 4.5 ± 0.7 nM
